Experimental data taken from patent publication US20230113037A1 (Bayer Aktiengesellschaft, priority 2019, published 2023).
Read-outs that look alike come from different tables or passages of the source.

Experiments:
[1] = molecular target: T1, AHR (Homo sapiens, UniProt P35869); experiment: In vitro assay 1: antagonism in human cell line (AHR transactivation, firefly luciferase reporter, kynurenic acid prestimulated); assay type: cell-based; conditions: AHR Antagonism Human IC50 [M]
T1 construct: U87 MG glioblastoma cells (ATCC #HTB-14) endogenously expressing AHR; endogenous in cells; host or cells: U87 MG glioblastoma cells (ATCC #HTB-14)
T1 sequence (P35869 11-848): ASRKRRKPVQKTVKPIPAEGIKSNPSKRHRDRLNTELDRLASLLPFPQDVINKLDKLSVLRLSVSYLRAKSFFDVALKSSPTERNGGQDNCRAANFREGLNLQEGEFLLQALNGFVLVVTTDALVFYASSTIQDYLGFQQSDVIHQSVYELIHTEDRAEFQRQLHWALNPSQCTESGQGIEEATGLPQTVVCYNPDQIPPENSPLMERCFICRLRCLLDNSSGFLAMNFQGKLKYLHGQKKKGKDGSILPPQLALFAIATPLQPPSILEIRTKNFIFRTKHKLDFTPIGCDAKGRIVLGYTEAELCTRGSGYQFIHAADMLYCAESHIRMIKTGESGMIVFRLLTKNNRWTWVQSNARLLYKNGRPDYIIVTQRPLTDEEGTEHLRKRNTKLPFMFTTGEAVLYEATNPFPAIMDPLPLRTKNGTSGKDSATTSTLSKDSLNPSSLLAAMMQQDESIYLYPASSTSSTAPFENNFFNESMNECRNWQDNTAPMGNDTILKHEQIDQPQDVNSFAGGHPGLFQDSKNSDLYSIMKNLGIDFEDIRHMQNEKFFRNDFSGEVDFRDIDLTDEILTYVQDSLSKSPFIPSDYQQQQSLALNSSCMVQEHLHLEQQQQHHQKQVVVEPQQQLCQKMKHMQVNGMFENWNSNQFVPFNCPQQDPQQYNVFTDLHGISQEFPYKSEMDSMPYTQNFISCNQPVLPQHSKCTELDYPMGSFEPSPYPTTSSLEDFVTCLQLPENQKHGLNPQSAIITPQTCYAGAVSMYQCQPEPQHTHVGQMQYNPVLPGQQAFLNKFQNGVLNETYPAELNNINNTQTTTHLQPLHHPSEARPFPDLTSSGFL
Procedure, shortened: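 Antagonism measured as loss of kynurenic acid-driven firefly luciferase from DRE reporter in stably transfected U87 MG cells; constitutive Renilla signal monitors cytotoxicity. Positive/negative control normalization, staurosporine 5 μM with 150 μM kynurenic acid as inhibition control; replicates given as mean or median.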

[2] = molecular target: T2, AHR (Mus musculus, UniProt P30561); experiment: In vitro assay 3: antagonism in mouse cell line (AHR transactivation, firefly luciferase reporter, kynurenic acid prestimulated); assay type: cell-based
T2 sequence (P30561 1-848 P471L/N533S/M589L): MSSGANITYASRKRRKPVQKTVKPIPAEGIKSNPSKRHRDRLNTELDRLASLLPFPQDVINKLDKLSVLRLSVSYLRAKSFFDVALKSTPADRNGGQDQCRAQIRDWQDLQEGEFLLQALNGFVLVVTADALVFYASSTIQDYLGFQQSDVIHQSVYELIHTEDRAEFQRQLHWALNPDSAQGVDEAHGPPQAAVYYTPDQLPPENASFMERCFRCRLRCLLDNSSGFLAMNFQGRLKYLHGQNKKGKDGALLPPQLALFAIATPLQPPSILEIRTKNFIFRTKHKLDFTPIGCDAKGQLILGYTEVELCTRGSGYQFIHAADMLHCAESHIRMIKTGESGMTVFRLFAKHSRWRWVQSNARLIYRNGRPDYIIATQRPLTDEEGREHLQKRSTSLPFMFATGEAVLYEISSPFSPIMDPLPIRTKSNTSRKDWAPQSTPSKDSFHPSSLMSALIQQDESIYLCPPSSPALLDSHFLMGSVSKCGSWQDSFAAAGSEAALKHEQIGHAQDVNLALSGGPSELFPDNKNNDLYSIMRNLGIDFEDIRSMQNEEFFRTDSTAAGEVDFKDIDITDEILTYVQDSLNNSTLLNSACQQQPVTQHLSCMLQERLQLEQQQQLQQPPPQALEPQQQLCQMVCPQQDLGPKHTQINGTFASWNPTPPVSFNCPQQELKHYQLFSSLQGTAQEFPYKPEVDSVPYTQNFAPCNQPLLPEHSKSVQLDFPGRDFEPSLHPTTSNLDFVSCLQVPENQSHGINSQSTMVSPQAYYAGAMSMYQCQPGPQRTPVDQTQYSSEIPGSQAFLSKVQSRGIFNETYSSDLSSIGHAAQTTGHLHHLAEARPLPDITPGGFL
Procedure, shortened: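 Antagonism read as reduced firefly luciferase signal (SteadyGlo) from a stably transfected AHR/DRE reporter in a mouse line prestimulated with kynurenic acid. Data normalized to controls, the full-inhibition control being cells without kynurenic acid; multiple determinations given as average or median values.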

[3] = mouse Hepa 1c1c7 cells, 200 μM kynurenic acid, 20 hours, read-out: AHR Antagonism Mouse IC50
[4] = Hepa 1c1c7 cells, 200 μM kynurenic acid, 20 hours, firefly luciferase reporter, read-out: AHR Antagonism Mouse IC50

Row | SMILES | IC50 [1] | IC50 ([2]; read-out: AHR Antagonism Mouse IC50, mouse Hepa 1c1c7 cells, 200 μM kynurenic acid, 20 hours) | IC50 [2, 3] | IC50 ([1]; firefly luciferase reporter) | IC50 [2, 4]
1 | CC(C)Sc1cccc2c1nc(N[C@@H]1CCCCNC1=O)n1nc(-c3cnn(C)c3)nc21 [Example 768] | 1.32e-07 M | 1220 nM | – | – | –
2 | CCSc1cccc2c1nc(N[C@@H]1CCCCNC1=O)n1nc(-c3cnn(C)c3)nc21 [Example 769, (3R)-3-{[7-(ethylsulfanyl)-2-(1-methyl-1H-pyrazol-4-yl)[1,2,4]triazolo[1,5-c]quinazolin-5-yl]amino}azepan-2-one] | 2.1e-08 M | – | 151 nM | – | –
3 | CCSc1cccc2c1nc(N[C@@H]1CCCCNC1=O)n1nc(-c3ccc(OC)cc3)nc21 [Example 770, (3R)-3-{[7-(ethylsulfanyl)-2-(4-methoxyphenyl)[1,2,4]triazolo[1,5-c]quinazolin-5-yl]amino}azepan-2-one] | 4.04e-09 M | – | 5.09 nM | – | –
4 | CSc1cccc2c1nc(N[C@@H]1CCCCNC1=O)n1nc(-c3cnn(C(C)C)c3)nc21 [Example 771, (3R)-3-({7-(methylsulfanyl)-2-[1-(propan-2-yl)-1H-pyrazol-4-yl][1,2,4]triazolo[1,5-c]quinazolin-5-yl}amino)azepan-2-one] | 1.02e-08 M | – | 104 nM | – | –
5 | CCn1cc(-c2nc3c4cccc(SC)c4nc(N[C@@H]4CCCCNC4=O)n3n2)c(C)n1 [Example 772, (3R)-3-{[2-(1-ethyl-3-methyl-1H-pyrazol-4-yl)-7-(methylsulfanyl)[1,2,4]triazolo[1,5-c]quinazolin-5-yl]amino}azepan-2-one] | 3.61e-09 M | – | 51.3 nM | – | –
6 | COc1ccc(-c2nc3c4cccc(Br)c4nc(N[C@H](C)C(=O)N4CCOCC4)n3n2)cc1 [Example 773, (2R)-2-{[7-bromo-2-(4-methoxyphenyl)[1,2,4]triazolo[1,5-c]quinazolin-5-yl]amino}-1-(morpholin-4-yl)propan-1-one] | 8.57e-10 M | – | 0.995 nM | – | –
7 | C[C@@H](Nc1nc2ccccc2c2nc(-c3ccc(S(C)(=O)=O)cc3)nn12)C(=O)NCCN(C)C [Example 774, N-[2-(dimethylamino)ethyl]-N^2-{2-[4-(methanesulfonyl)phenyl][1,2,4]triazolo[1,5-c]quinazolin-5-yl}-D-alaninamide] | 2.26e-06 M | – | 555 nM | – | –
8 | C[C@@H](Nc1nc2ccccc2c2nc(-c3cc(Cl)ccc3OC(F)(F)F)nn12)C(=O)NCCN(C)C [Example 775, N^2-{2-[5-chloro-2-(trifluoromethoxy)phenyl][1,2,4]triazolo[1,5-c]quinazolin-5-yl}-N-[2-(dimethylamino)ethyl]-D-alaninamide] | 3.13e-06 M | – | 743 nM | – | –
9 | C[C@@H](Nc1nc2ccccc2c2nc(-c3cnn(C)c3)nn12)C(=O)NCCN(C)C [Example 776, N-[2-(dimethylamino)ethyl]-N^2-[2-(1-methyl-1H-pyrazol-4-yl)[1,2,4]triazolo[1,5-c]quinazolin-5-yl]-D-alaninamide] | 2.92e-06 M | – | 1020 nM | – | –
10 | COc1ccc(-c2nc3c4ccccc4nc(N[C@H](C)C(=O)N4CCN(C)CC4)n3n2)cc1 [Example 777, (2R)-2-{[2-(4-methoxyphenyl)[1,2,4]triazolo[1,5-c]quinazolin-5-yl]amino}-1-(4-methylpiperazin-1-yl)propan-1-one] | 1.8e-09 M | – | 2.21 nM | – | –
11 | COc1ccc(-c2nc3c4ccccc4nc(N[C@H](C)C(=O)N4CCOCC4)n3n2)cc1 [Example 778, (2R)-2-{[2-(4-methoxyphenyl)[1,2,4]triazolo[1,5-c]quinazolin-5-yl]amino}-1-(morpholin-4-yl)propan-1-one] | 2.09e-09 M | – | 4.32 nM | – | –
12 | COc1ccc(-c2nc3c4ccccc4nc(N[C@H](C)C(=O)NCCN4CCOCC4)n3n2)cc1 [Example 779, N^2-[2-(4-methoxyphenyl)[1,2,4]triazolo[1,5-c]quinazolin-5-yl]-N-[2-(morpholin-4-yl)ethyl]-D-alaninamide] | 4.3e-09 M | – | 5.96 nM | – | –
13 | COc1ccc(-c2nc3c4cccc(Br)c4nc(N[C@H](C)C(=O)NCCN4CCN(C)CC4)n3n2)cc1 [Example 780, N^2-[7-bromo-2-(4-methoxyphenyl)[1,2,4]triazolo[1,5-c]quinazolin-5-yl]-N-[2-(4-methylpiperazin-1-yl)ethyl]-D-alaninamide] | 4.91e-09 M | – | 5.55 nM | – | –
14 | COc1ccc(-c2nc3c4cccc(Br)c4nc(N[C@H](C)C(=O)NCCN4CCOCC4)n3n2)cc1 [Example 781, N^2-[7-bromo-2-(4-methoxyphenyl)[1,2,4]triazolo[1,5-c]quinazolin-5-yl]-N-[2-(morpholin-4-yl)ethyl]-D-alaninamide] | 1.17e-09 M | – | 2.09 nM | – | –
15 | C[C@@H](Nc1nc2c(Br)cccc2c2nc(-c3cnn(C)c3)nn12)C(=O)NCCN1CCOCC1 [Example 782, N^2-[7-bromo-2-(1-methyl-1H-pyrazol-4-yl)[1,2,4]triazolo[1,5-c]quinazolin-5-yl]-N-[2-(morpholin-4-yl)ethyl]-D-alaninamide] | 1.29e-07 M | – | 79.7 nM | – | –
16 | C[C@@H](Nc1nc2c(Br)cccc2c2nc(-c3cnn(C)c3)nn12)C(=O)NCCN1CCN(C)CC1 [Example 783, N^2-[7-bromo-2-(1-methyl-1H-pyrazol-4-yl)[1,2,4]triazolo[1,5-c]quinazolin-5-yl]-N-[2-(4-methylpiperazin-1-yl)ethyl]-D-alaninamide] | – | – | – | 1.71e-07 M | 291 nM
17 | COc1ccc(-c2nc3c4ccccc4nc(N[C@H](C)C(=O)NCC(C)(C)N)n3n2)cc1 [Example 784, N-(2-amino-2-methylpropyl)-N^2-[2-(4-methoxyphenyl)[1,2,4]triazolo[1,5-c]quinazolin-5-yl]-D-alaninamide] | – | – | – | 9.16e-08 M | 48.1 nM
18 | C[C@@H](Nc1nc2c(Br)cccc2c2nc(-c3cnn(C)c3)nn12)C(=O)N1CCOCC1 [Example 785, (2R)-2-{[7-bromo-2-(1-methyl-1H-pyrazol-4-yl)[1,2,4]triazolo[1,5-c]quinazolin-5-yl]amino}-1-(morpholin-4-yl)propan-1-one] | – | – | – | 2.38e-08 M | 32.2 nM
19 | C[C@@H](Nc1nc2c(Br)cccc2c2nc(-c3cnn(C)c3)nn12)C(=O)N1CCN(C)CC1 [Example 786, (2R)-2-{[7-bromo-2-(1-methyl-1H-pyrazol-4-yl)[1,2,4]triazolo[1,5-c]quinazolin-5-yl]amino}-1-(4-methylpiperazin-1-yl)propan-1-one] | – | – | – | 2.2e-08 M | 22.1 nM
20 | COc1ccc(-c2nc3c4ccccc4nc(N[C@H](C)C(=O)NCCN(C)C)n3n2)cc1 [Example 787, N-[2-(dimethylamino)ethyl]-N^2-[2-(4-methoxyphenyl)[1,2,4]triazolo[1,5-c]quinazolin-5-yl]-D-alaninamide] | – | – | – | 2.26e-08 M | 38.2 nM
21 | COc1ccc(-c2nc3c4cccc(Br)c4nc(N[C@H](C)C(=O)N4CCN(C)CC4)n3n2)cc1 [Example 788, (2R)-2-{[7-bromo-2-(4-methoxyphenyl)[1,2,4]triazolo[1,5-c]quinazolin-5-yl]amino}-1-(4-methylpiperazin-1-yl)propan-1-one] | – | – | – | 4.64e-10 M | 2.08 nM
